One experiment addresses T1, SRC (Homo sapiens, UniProt P12931).
T1 construct: purchased Invitrogen
Nature of the experiment: In vitro kinase assay (Z'-LYTE, Invitrogen). The experiment is classed as biochemical. The following applies: compound at 100 nM, ATP Km apparent, read-out: % of inhibition of the kinase compared to the control. Here is the method: (§1) The inhibitory activity of the compounds on 7 kinases (BRAF, EGFR (ErbB1), EGFR (ErbB1) T790M L858R, FGFR2, KDR (VEGFR2), PDGFRA (PDGFR alpha), SRC) was evaluated by Invitrogen using the Z′-LYTE® technology. Briefly, the Z′-LYTE® biochemical assay employs a fluorescence-based, coupled-enzyme format and is based on the differential sensitivity of phosphorylated and non-phosphorylated peptides to proteolytic cleavage. The peptide substrate is labeled with two fluorophores—one at each end—that make up a FRET pair. A ratiometric method, which calculates the ratio (the Emission Ratio) of donor emission to acceptor emission after excitation of the donor fluorophore at 400 nm, is used to quantitate reaction progress.
(§2) The compounds are screened in 1% DMSO (final) in the well. For 10 point titrations, 3-fold serial dilutions are conducted from the starting concentration. All Peptide/Kinase Mixtures are diluted to a 2× working concentration in the appropriate Kinase Buffer. All ATP Solutions are diluted to a 4× working concentration in Kinase Buffer (50 mM HEPES pH 7.5, 0.01% BRIJ-35, 10 mM MgCl2, 1 mM EGTA). ATP Km apparent is previously determined using a Z′-LYTE® assay.
(§3) Each compound was incubated at a concentration of 100 nM and the tables 21 to 27 summarize the results obtained showing the inhibitory power of a compound.

In a further experiment the target is T2, PDGFRA (PDGFR alpha) (Homo sapiens, UniProt P16234).
T2 construct: purchased Invitrogen
Nature of the experiment: In vitro kinase assay (Z'-LYTE, Invitrogen). Type of experiment: biochemical. The following applies: compound at 100 nM, ATP Km apparent, read-out: % of inhibition of the kinase compared to the control. As for the experimental part: as §1, §2, §3

A further experiment addresses T3, KDR (VEGFR2) (Homo sapiens, UniProt P35968).
T3 construct: purchased Invitrogen
Nature of the experiment: In vitro kinase assay (Z'-LYTE, Invitrogen). The settings on record: compound at 100 nM, ATP Km apparent, read-out: % of inhibition of the kinase compared to the control. Type of experiment: biochemical. Here is the method: as §1, §2, §3

The next experiment deals with T4, EGFR (ErbB1) (Homo sapiens, UniProt P00533).
T4 construct: purchased Invitrogen
T4 sequence (P00533 25-1210): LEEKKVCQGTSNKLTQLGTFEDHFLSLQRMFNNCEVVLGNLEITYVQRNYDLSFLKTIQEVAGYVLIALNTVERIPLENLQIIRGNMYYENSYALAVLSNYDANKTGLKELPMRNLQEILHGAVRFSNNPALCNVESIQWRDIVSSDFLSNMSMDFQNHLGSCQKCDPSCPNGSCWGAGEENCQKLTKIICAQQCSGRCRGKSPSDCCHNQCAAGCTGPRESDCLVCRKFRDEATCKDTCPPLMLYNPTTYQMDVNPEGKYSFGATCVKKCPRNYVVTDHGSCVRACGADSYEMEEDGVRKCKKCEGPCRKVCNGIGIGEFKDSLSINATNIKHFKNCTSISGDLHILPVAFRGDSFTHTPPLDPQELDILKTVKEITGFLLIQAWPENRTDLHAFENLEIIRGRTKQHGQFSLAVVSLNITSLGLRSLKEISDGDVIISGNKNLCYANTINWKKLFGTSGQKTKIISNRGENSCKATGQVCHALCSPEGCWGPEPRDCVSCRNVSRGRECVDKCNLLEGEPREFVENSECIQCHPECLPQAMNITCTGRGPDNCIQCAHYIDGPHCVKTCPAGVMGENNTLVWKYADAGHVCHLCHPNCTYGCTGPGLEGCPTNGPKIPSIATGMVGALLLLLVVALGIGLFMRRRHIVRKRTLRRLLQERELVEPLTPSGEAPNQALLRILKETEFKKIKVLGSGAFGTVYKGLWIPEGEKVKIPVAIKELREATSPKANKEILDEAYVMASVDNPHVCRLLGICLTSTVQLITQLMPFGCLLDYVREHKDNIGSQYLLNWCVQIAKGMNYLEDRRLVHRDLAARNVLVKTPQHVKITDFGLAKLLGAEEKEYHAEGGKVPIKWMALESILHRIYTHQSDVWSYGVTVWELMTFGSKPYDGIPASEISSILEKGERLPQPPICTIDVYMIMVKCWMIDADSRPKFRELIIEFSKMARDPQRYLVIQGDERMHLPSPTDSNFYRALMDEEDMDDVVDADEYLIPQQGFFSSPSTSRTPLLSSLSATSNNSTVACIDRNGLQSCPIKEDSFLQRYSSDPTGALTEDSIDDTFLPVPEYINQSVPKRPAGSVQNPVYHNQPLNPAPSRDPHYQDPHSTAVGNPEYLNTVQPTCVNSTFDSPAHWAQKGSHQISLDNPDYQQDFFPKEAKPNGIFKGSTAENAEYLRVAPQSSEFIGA
Nature of the experiment: In vitro kinase assay (Z'-LYTE, Invitrogen). Type of experiment: biochemical. The following applies: compound at 100 nM, ATP Km apparent, read-out: % of inhibition of the kinase compared to the control. As for the experimental part:
as §1, §2, §3

For a further experiment, the target named is T5, BRAF (Homo sapiens, UniProt P15056).
T5 construct: purchased Invitrogen
T5 sequence (P15056 whole entry): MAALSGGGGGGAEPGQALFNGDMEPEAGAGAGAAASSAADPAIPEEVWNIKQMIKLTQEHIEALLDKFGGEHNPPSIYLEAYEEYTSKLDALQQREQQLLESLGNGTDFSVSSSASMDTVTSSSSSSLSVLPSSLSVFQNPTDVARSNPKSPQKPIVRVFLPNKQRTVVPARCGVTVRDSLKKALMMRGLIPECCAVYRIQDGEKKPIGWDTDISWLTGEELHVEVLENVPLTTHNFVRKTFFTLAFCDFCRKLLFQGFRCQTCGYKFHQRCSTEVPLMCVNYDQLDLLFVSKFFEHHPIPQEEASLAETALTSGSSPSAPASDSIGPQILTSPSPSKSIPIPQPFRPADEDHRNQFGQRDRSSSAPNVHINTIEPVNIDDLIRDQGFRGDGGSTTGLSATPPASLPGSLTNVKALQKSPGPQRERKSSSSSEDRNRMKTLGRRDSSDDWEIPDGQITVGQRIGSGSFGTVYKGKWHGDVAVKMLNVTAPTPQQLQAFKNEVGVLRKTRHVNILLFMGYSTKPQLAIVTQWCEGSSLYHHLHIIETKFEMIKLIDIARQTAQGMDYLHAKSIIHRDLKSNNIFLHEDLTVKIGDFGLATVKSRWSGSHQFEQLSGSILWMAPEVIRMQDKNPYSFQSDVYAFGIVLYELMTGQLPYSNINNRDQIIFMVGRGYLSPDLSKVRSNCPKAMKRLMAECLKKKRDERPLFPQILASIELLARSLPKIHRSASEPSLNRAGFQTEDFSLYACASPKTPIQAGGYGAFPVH
Nature of the experiment: In vitro kinase assay (Z'-LYTE, Invitrogen). Type of experiment: biochemical. The following applies: compound at 100 nM, ATP Km apparent, read-out: % of inhibition of the kinase compared to the control. Here is the method: as §1, §2, §3

The next experiment concerns the target T6, FGFR2 (Homo sapiens, UniProt P21802).
T6 construct: purchased Invitrogen
Nature of the experiment: In vitro kinase assay (Z'-LYTE, Invitrogen). The experiment is classed as biochemical. The settings on record: compound at 100 nM, ATP Km apparent, read-out: % of inhibition of the kinase compared to the control. As for the experimental part:
as §1, §2, §3

Another experiment has as its system MDA-MB-231 cell line. Nature of the experiment: In vitro cell proliferation assay (MTT). The experiment is classed as cell-based. The settings on record: Homo sapiens, MDA-MB-231, 72 hr, read-out: EC50, anti-proliferative activity. Here is the method: (§4) Cancer cell lines (5×10^3 cells per well) or HUVEC (1×10^4 cells per well) or HRMEC (1×10^4 cells per well) were distributed in 96-well plates and incubating in duplicate with escalating concentrations (10 nM to 3 μM) of compounds for 72 hr. Cell proliferation was measured using MTT (3[4,5-dimethylthiazol-2-yl]-2,5-diphenyltetrazolium bromide). The EC50 values were calculated from sigmoidal dose-response curves utilizing Prism 5.0 from Graph-Pad Software (GraphPad Software, La Jolla, Calif., USA), with values normalized to those of DMSO-treated control wells (0%) and 1% SDS control wells (100%).

Another experiment deals with A549 cell line. Nature of the experiment: In vitro cell proliferation assay (MTT). The following applies: Homo sapiens, A549, 72 h, read-out: EC50, anti-proliferative activity. The experiment is classed as cell-based. Here is the method:
as §4

The subject of another experiment is HeLa cell line. Nature of the experiment: In vitro cell proliferation assay (MTT). The experiment is classed as cell-based. The settings on record: Homo sapiens, 72 hr, read-out: EC50, anti-proliferative activity. As for the experimental part: as §4
A further experiment deals with HepG2 cell line. Nature of the experiment: In vitro cell proliferation assay (MTT). Type of experiment: cell-based. The following applies: Homo sapiens, HepG2, 72 hr, read-out: EC50, anti-proliferative activity. Here is the method: as §4
For a further experiment, the system named is HUVEC cells. Nature of the experiment: In vitro cell proliferation assay (MTT). The experiment is classed as cell-based. The following applies: Homo sapiens, 72 hr, read-out: EC50, anti-proliferative activity. Here is the method:
as §4

Each structure is given as a SMILES string. Where two headings read alike, the source gives them in different places.

T3 sequence (P35968 20-1356): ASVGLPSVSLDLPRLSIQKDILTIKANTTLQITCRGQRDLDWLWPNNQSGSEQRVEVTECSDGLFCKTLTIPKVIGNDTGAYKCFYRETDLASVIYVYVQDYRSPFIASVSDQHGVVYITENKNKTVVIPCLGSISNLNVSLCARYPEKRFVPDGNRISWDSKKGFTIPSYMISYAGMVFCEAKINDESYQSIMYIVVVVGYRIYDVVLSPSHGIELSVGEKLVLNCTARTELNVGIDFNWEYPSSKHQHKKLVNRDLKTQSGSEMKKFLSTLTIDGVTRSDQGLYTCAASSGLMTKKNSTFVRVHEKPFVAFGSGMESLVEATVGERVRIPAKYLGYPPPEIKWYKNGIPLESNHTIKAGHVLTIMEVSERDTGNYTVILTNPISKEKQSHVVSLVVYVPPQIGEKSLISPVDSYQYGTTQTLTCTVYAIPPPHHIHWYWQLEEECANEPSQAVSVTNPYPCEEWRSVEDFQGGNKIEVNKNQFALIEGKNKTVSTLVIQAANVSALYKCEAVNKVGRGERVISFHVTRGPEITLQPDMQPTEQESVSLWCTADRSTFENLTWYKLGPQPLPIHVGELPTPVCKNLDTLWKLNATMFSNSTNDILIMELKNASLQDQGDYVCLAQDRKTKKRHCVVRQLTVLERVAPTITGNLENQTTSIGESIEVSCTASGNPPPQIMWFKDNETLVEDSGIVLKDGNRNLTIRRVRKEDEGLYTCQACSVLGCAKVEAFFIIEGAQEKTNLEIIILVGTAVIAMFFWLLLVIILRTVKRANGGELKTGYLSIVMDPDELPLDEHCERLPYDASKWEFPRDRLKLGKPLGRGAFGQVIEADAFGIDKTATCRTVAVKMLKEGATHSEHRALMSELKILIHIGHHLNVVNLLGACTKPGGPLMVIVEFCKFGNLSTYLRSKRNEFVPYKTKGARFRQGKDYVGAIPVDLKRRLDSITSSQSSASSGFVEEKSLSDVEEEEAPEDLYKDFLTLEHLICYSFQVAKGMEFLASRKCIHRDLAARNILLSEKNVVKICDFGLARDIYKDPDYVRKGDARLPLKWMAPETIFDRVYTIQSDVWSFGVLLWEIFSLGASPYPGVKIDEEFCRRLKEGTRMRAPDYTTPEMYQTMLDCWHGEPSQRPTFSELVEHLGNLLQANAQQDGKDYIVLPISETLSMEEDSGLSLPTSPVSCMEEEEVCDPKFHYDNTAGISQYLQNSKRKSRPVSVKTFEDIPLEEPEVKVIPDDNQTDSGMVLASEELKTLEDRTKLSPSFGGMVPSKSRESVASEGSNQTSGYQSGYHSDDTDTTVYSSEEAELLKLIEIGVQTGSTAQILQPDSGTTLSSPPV
T1 sequence (P12931 whole entry): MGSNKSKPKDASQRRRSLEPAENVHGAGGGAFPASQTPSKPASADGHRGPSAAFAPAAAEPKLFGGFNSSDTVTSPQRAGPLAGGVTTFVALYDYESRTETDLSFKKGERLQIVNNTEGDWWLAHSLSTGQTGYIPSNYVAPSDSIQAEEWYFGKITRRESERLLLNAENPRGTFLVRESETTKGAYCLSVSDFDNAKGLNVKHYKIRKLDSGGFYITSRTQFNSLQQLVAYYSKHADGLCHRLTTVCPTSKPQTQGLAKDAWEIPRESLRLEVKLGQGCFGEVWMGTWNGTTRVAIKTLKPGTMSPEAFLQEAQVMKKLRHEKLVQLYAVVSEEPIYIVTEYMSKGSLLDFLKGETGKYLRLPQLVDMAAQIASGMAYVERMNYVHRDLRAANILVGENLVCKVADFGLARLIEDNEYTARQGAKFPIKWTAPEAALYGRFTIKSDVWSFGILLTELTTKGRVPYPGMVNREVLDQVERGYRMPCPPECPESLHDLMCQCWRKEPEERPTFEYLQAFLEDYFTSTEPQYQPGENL
T6 sequence (P21802 22-821): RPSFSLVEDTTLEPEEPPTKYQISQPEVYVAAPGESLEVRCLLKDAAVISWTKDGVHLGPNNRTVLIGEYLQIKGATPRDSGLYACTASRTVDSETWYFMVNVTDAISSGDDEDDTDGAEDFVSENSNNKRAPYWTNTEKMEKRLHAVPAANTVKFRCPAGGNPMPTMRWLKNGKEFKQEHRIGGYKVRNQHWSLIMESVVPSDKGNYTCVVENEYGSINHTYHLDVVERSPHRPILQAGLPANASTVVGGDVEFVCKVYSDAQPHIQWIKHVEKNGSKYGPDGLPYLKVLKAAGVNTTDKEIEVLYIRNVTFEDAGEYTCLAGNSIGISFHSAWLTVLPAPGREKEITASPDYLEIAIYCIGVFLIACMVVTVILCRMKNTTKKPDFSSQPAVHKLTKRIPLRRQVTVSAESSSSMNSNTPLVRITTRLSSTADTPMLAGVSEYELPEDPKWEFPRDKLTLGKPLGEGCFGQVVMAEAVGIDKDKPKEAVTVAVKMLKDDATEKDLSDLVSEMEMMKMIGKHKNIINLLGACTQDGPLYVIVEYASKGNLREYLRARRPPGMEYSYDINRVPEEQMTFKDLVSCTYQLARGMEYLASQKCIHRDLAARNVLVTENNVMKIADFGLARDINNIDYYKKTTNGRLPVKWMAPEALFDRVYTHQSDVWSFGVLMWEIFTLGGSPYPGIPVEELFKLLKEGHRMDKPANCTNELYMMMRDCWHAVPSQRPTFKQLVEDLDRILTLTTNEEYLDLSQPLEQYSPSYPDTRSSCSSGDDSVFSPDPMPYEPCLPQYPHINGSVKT

In general, inhibition refers to the relative decrease from the control value, in per cent. As a reminder, the EC50 is the concentration at which the effect is half-maximal. `COC(=O)c1cc2cc(CCc3cc(NC(=O)C4CCC(C(F)(F)F)CC4)ccc3C)cnc2[nH]1` (stereo not shown) [OR1057, 5-(2-{2-Methyl-5-[(4-trifluoromethyl-cyclohexanecarbonyl)-amino]-phenyl)-ethyl)-1H-pyrrolo[2,3-b]pyridine-2-carboxylic acid methyl ester]: the inhibition at 0.1 µM is not below 50% at SRC; not below 50% at PDGFRA (PDGFR alpha); less than 50% on KDR (VEGFR2); not below 50% on EGFR (ErbB1); less than 50% at BRAF; less than 50% on FGFR2. Further, the EC50 in the experiment with MDA-MB-231 cell line (EC50 ≧ 1 μM), in the experiment with A549 cell line (EC50 ≧ 1 μM), in the experiment on HeLa cell line (EC50 ≧ 1 μM), in the experiment with HepG2 cell line (EC50 ≧ 1 μM) and in the experiment on HUVEC cells (EC50 ≧ 1 μM) was not below 1 µM in each case.
Take `COC(=O)c1cc2cc(CSc3cccc(NC(=O)c4cccc(C(F)(F)F)c4)c3)cnc2[nH]1` [OR1066, 5-[3-(3-Trifluoromethyl-benzoylamino)-phenylsulfanylmethyl]-1H-pyrrolo[2,3-b]pyridine-2-carboxylic acid methyl ester]: the inhibition at 0.1 µM was less than 50% on SRC; not below 50% on PDGFRA (PDGFR alpha); not below 50% at KDR (VEGFR2); less than 50% on EGFR (ErbB1); less than 50% on BRAF; less than 50% on FGFR2. The EC50 in the experiment on MDA-MB-231 cell line (EC50 ≧ 1 μM), in the experiment with A549 cell line (EC50 ≧ 1 μM), with HeLa cell line (EC50 ≧ 1 μM), in the experiment with HepG2 cell line (EC50 ≧ 1 μM) and with HUVEC cells (EC50 ≧ 1 μM) was not below 1 µM in each case.
Turning to `CC(=O)c1cc2cc(CCc3cc(NC(=O)c4cc(N5CCN(C)CC5)cc(C(F)(F)F)c4)ccc3C)cnc2[nH]1` [OR1059, N-{3-[2-(2-Acetyl-1H-pyrrolo[2,3-b]pyridin-5-yl)-ethyl]-4-methyl-phenyl}-3-(4-methyl-piperazin-1-yl)-5-trifluoromethyl-benzamide], the inhibition at 0.1 µM on SRC, at PDGFRA (PDGFR alpha), at KDR (VEGFR2), at EGFR (ErbB1), at BRAF and at FGFR2 was not below 50% each time. In addition, the EC50 in the experiment with MDA-MB-231 cell line (100 nM < EC50 < 1 μM) was 0.1 to 1 µM; with A549 cell line (100 nM < EC50 < 1 μM), 0.1 to 1 µM; in the experiment on HeLa cell line (100 nM < EC50 < 1 μM), 0.1 to 1 µM; with HepG2 cell line (100 nM < EC50 < 1 μM) it was 0.1 to 1 µM; with HUVEC cells (EC50 ≧ 1 μM), not below 1 µM.
On to `COC(=O)c1cc2cc(CCc3ccc(C)c(NC(=O)c4cc(-n5cnc(C)c5)cc(C(F)(F)F)c4)c3)cnc2[nH]1` [OR1068, 5-(2-{4-Methyl-3-[3-(4-methyl-imidazol-1-yl)-5-trifluoromethyl-benzoylamino]-phenyl}-ethyl)-1H-pyrrolo[2,3-b]pyridine-2-carboxylic acid methyl ester], for which the inhibition at 0.1 µM on SRC was not below 50%; at PDGFRA (PDGFR alpha), not below 50%; at KDR (VEGFR2) it was not below 50%; on EGFR (ErbB1), not below 50%; on BRAF it was less than 50%; at FGFR2 it was not below 50%. In addition, the EC50 was not below 1 µM with MDA-MB-231 cell line (EC50 ≧ 1 μM); not below 1 µM in the experiment with A549 cell line (EC50 ≧ 1 μM); not below 1 µM with HeLa cell line (EC50 ≧ 1 μM); not below 1 µM with HepG2 cell line (EC50 ≧ 1 μM); 0.1 to 1 µM in the experiment on HUVEC cells (100 nM < EC50 < 1 μM).
As to `CC(=O)c1cc2cc(CCc3cc(NC(=S)Nc4cccc(C(F)(F)F)c4)ccc3C)cnc2[nH]1` [OR1017, 1-{3-[2-(2-Acetyl-1H-pyrrolo[2,3-b]pyridin-5-yl)-ethyl]-4-methyl-phenyl}-3-(3-trifluoromethyl-phenyl)-thiourea], the inhibition at 0.1 µM on KDR (VEGFR2), on EGFR (ErbB1), on BRAF and on FGFR2 was less than 50% in each case. The EC50 with MDA-MB-231 cell line (EC50 ≧ 1 μM) was not below 1 µM; in the experiment on A549 cell line (EC50 ≧ 1 μM) it was not below 1 µM; in the experiment with HeLa cell line (EC50 ≧ 1 μM), not below 1 µM; with HepG2 cell line (100 nM < EC50 < 1 μM), 0.1 to 1 µM; in the experiment on HUVEC cells (EC50 ≧ 1 μM), not below 1 µM.
As for `COC(=O)c1cc2cc(CCc3cccc(NC(=S)Cc4cccc(C(F)(F)F)c4)c3)cnc2[nH]1` [OR1014, 5-(2-{3-[2-(3-Trifluoromethyl-phenyl)-thioacetylamino]-phenyl}-ethyl)-1H-pyrrolo[2,3-b]pyridine-2-carboxylic acid methyl ester], the inhibition at 0.1 µM at SRC, on PDGFRA (PDGFR alpha), at KDR (VEGFR2), on EGFR (ErbB1), at BRAF and on FGFR2 was less than 50% throughout. The EC50 in the experiment on MDA-MB-231 cell line (EC50 ≧ 1 μM) was not below 1 µM; in the experiment with A549 cell line (EC50 ≧ 1 μM), not below 1 µM; in the experiment with HeLa cell line (EC50 ≧ 1 μM) it was not below 1 µM; in the experiment on HepG2 cell line (EC50 ≧ 1 μM), not below 1 µM; with HUVEC cells (100 nM < EC50 < 1 μM) it was 0.1 to 1 µM.
As for `COC(=O)c1cc2cc(CCc3cccc(NC(=O)c4ccc(CN5CCN(C)CC5)c(C(F)(F)F)c4)c3)cnc2[nH]1` [OR0921, 5-(2-{3-[4-(4-Methyl-piperazin-1-ylmethyl)-3-trifluoromethyl-benzoylamino]-phenyl}-ethyl)-1H-pyrrolo[2,3-b]pyridine-2-carboxylic acid methyl ester], the inhibition at 0.1 µM on KDR (VEGFR2) was not below 50%; on EGFR (ErbB1) it was not below 50%; at BRAF, less than 50%; on FGFR2 it was not below 50%. The EC50 is not above 0.1 µM in the experiment with MDA-MB-231 cell line (EC50 ≦ 100 nM); 0.1 to 1 µM in the experiment with A549 cell line (100 nM < EC50 < 1 μM); not above 0.1 µM in the experiment on HeLa cell line (EC50 ≦ 100 nM); 0.1 to 1 µM with HepG2 cell line (100 nM < EC50 < 1 μM); not above 0.1 µM with HUVEC cells (EC50 ≦ 100 nM).
Consider `COC(=O)c1cc2cc(CCc3cc(NC(=O)c4cncc(C(F)(F)F)c4)ccc3Cl)cnc2[nH]1` [OR1008, 5-(2-{2-Chloro-5-[(5-trifluoromethyl-pyridine-3-carbonyl)-amino]-phenyl}-ethyl)-1H-pyrrolo[2,3-b]pyridine-2-carboxylic acid methyl ester], for which the inhibition at 0.1 µM on KDR (VEGFR2) is not below 50%; on EGFR (ErbB1) it was less than 50%; on BRAF it was not below 50%; at FGFR2, less than 50%. For the same compound, the EC50 in the experiment with MDA-MB-231 cell line (EC50 ≧ 1 μM), in the experiment with A549 cell line (EC50 ≧ 1 μM), in the experiment on HeLa cell line (EC50 ≧ 1 μM), in the experiment with HepG2 cell line (EC50 ≧ 1 μM) and with HUVEC cells (EC50 ≧ 1 μM) was not below 1 µM in each case.
With `COC(=O)c1cc2cc(CNCc3cccc(NC(=O)c4ccc(CN5CCN(C)CC5)c(C(F)(F)F)c4)c3)cnc2[nH]1` [OR1020, 5-({3-[4-(4-Methyl-piperazin-1-ylmethyl)-3-trifluoromethyl-benzoylamino]-benzylamino}-methyl)-1H-pyrrolo[2,3-b]pyridine-2-carboxylic acid methyl ester], the inhibition at 0.1 µM at KDR (VEGFR2) was not below 50%; on EGFR (ErbB1), less than 50%; on BRAF it was less than 50%; at FGFR2, less than 50%. The EC50 with MDA-MB-231 cell line (EC50 ≧ 1 μM), in the experiment with A549 cell line (EC50 ≧ 1 μM), with HeLa cell line (EC50 ≧ 1 μM), with HepG2 cell line (EC50 ≧ 1 μM) and in the experiment on HUVEC cells (EC50 ≧ 1 μM) was not below 1 µM in each case.

These data come from patent US9550772B2, “Azaindole derivatives as multi kinase inhibitors” (ORIBASE PHARMA, priority 2012, dated 2017).
